Results taken from the supplement of paper PMC11208160.

Assay: recombinant barcode read abundance after kanamycin selection (control-corrected) (log10(CPM+1)); higher = more efficient recombination; sequences stand for … in AGTGCAGAGAAAATCGGCCAGTTTTCTCTGCCTGCAGTCCGCATGCCGT…AGATTTATGCAGCGGACTGCCTTTCTCCCAAAGTGATAAACCGGACAGTATCATGGACCGGTTTTCCCGGTAATCCGTATTTGCAAGGTTGGTTTCACT; site = the 11-nt target
Summary of the method: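 Duplicate cultures were plated either on chloramphenicol/ampicillin LB agar, serving as control, or on chloramphenicol/ampicillin/kanamycin with 0.1 mM IPTG. These came from a pooled E. coli library co-electroporated with a donor plasmid, each member pairing a target with an IS621 bridge RNA target-binding loop. Recombination efficiency equals averaged, control-corrected counts per million of recombinant-junction barcodes. It is listed as log10(CPM+1).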
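Further: IS621 recombinase and bridge RNA in Escherichia coli cells.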

| Sequence | recombinant barcode read abundance (log10) |
| --- | --- |
| CTTGGGTCTTGGGTTCTAACCTGTTGCCT (site CTTGGTTCTAG) | 0.122 |
| GCACTAGCTTGGGTTCTAACCTGTTGCGT (site GCACTAACTAG) | 0.17 |
| CGTCGTACTTGGGTTCTAACCTGTTGCCT (site CGACGTACTAG) | 0.504 |
| AGTCATCCTTGGGTTCTAACCTGTTGCCT (site AGTCATCCTAG) | 0.667 |
| GGGACGCCTTGGGTTCTAACCTGTTGCAT (site GAGCCGCCTAT) | 0.0802 |
| GAGAGGTCTTGGGTTCTAACCTGTTGCTT (site GAGAGGTCTAC) | 0.202 |
| ACTTAGACTTGGGTTCTAACCTGTTGCCG (site ACTTAGACTAG) | 0.287 |
| ATCGGAGCTTGGGTTCTAACCTGTTGCCT (site ATCGGAACTAG) | 0.196 |
| ATGCAAGCTTGGGTTCTAACCTGTTGCCT (site ATGCAATCTAG) | 0.234 |
| GCACATTCTTGGGTTCTAACCTGTTGCCT (site GCACATTCTAG) | 1.17 |
| CCTGGGACTTGGGTTCTAACCTGTTGCGG (site CCTGGGACTCC) | 2.29 |
| ACTAAGTCTTGGGTTCTAACCTGTTGCCT (site AATAAGTCTAG) | 0.106 |
| GAAAGTTCTTGGGTTCTAACCTGTTGCCT (site GCAAGTTCTAG) | 0.0711 |
| GTTGGCCCTTGGGTTCTAACCTGTTGCCT (site GGTGGCCCTAG) | 0.152 |
| ATAAACCCTTGGGTTCTAACCTGTTGCAT (site ATAAACCCTAT) | 2.4 |
| GGGGACCCTTGGGTTCTAACCTGTTGCGG (site GGGGACCCTTC) | 1.55 |
| TTCGAAACTTGGGTTCTAACCTGTTGCGT (site TTCGAAACTAC) | 1.46 |
| GTGAGGTCTTGGGTTCTAACCTGTTGCTT (site GTGAGGTCTAC) | 0.229 |

| Sequence | recombinant barcode read abundance (log10) |
| --- | --- |
| TAAGACCCTTGGGTTCTAACCTGTTGCCT (site TCAGACCCTAG) | 0.454 |
| GCCACTCCTTGGGTTCTAACCTGTTGCGT (site GCCACTCCTAC) | 0.297 |
| TCTAGAGCTTGGGTTCTAACCTGTTGCCT (site TCTAGAGCTAG) | 0.0183 |
| TGGAGTACTTGGGTTCTAACCTGTTGCTT (site TGGAGTACTAA) | 1.02 |
| GACGGACCTTGGGTTCTAACCTGTTGCTT (site GATGGCCCTAA) | 0.191 |
| GCCGCGACTTGGGTTCTAACCTGTTGCCT (site GCGGCGACTAG) | 0.204 |
| GCACACTCTTGGGTTCTAACCTGTTGCCT (site GCACGCTCTAG) | 0 |
| CTTCACGCTTGGGTTCTAACCTGTTGCCT (site CTTCACACTAT) | 0.177 |
| GCGTACTCTTGGGTTCTAACCTGTTGCCT (site GCGGACTCTTG) | 0.0368 |
| CACGAGCCTTGGGTTCTAACCTGTTGCCT (site CACGAGACTAG) | 0.149 |
| TCAGTATCTTGGGTTCTAACCTGTTGCCT (site TCAGGATCTAG) | 0.107 |
| GCTTGTTCTTGGGTTCTAACCTGTTGCCT (site CCTTGTTCTAG) | 0.501 |
| TCGCAAGCTTGGGTTCTAACCTGTTGCCT (site TCTCCAGCTAG) | 0.43 |
| TATTATACTTGGGTTCTAACCTGTTGCAT (site TATTATACTAT) | 0.167 |
| TACCGCCCTTGGGTTCTAACCTGTTGCGT (site TACCGCCCTAC) | 1.95 |
| TACCATTCTTGGGTTCTAACCTGTTGCTT (site TACAGTTCTAA) | 0.0331 |
| CTCCGTACTTGGGTTCTAACCTGTTGCAT (site CTCCGAACTAA) | 0.0945 |
| TAGGGGACTTGGGTTCTAACCTGTTGCAA (site CGTCCTGCTAA) | 0.0997 |
